{"source": "patent US20200214324A1", "about": "“Masking Bitter Flavors” (Board of Supervisors of Louisiana State University and …, priority 2009, published 2020)", "key": {"[1]": {"assay": "tasting of glycerine-water mixtures with mogroside", "type": "in vivo", "description": "Glycerine causes an astringent or biting taste in the back of the mouth when added to foods at levels over a few percent by weight. […] Glycerine may then be used as a humectant in intermediate-moisture human and pet foods. Adding a preferred concentration of about 200 ppm mogroside reduces or even eliminates the glycerine “bite.” Foods such as beans, pasta, rice, and bulgur can be pre-cooked in aqueous solutions of glycerine (˜2 to ˜30% by weight), containing ˜25 to ˜500 ppm mogroside. The products are then optionally dried to a water activity (aw) less than ˜0.7. The resulting materials can be rehydrated quickly with no bitter flavor.\n(§1) Additional examples of the use of Mogroside V to alter the flavors of various consumables, and the experimental results obtained, are summarized in Table I: […]"}, "[2]": {"assay": "vegetable oil with mogroside sprayed onto vegetables, tasting", "type": "in vivo", "details": "vegetable oil with 800 ppm mogroside sprayed on", "description": "Mogroside may also be applied to vegetables, for example as a spray or as a dipping solution. The bitter and astringent flavor notes of many vegetables are thereby reduced substantially, resulting in a smoother-tasting vegetable. Mogroside can also reduce beany notes and off-flavors in vegetables. We dispersed an aqueous or ethanol solution of mogroside into vegetable oil at a concentration of 800 ppm. The vegetable oil was then sprayed onto vegetables, either before or after cooking. […] The mogroside may be applied to vegetables from aerosols or misting solutions. It may also be used in microwaving, steaming, or boiling of vegetables, as well as other methods of cooking. […] Treating vegetables with mogroside can help to improve their acceptability."}, "[3]": {"assay": "tasting of vodka with mogroside", "type": "in vivo", "details": "plain + 200 ppm mogroside (plain: sharp bite)", "description": "as §1"}, "[4]": {"assay": "solubility of mogroside in water versus oil", "type": "physicochemical", "description": "Addition of mogroside will also help improve the flavor of other organ meats and products containing organ meats. Other methods of cooking may also be used. The concentration or amount of mogroside may vary, depending on the method of cooking used. […] By contrast, cooking foods in water may require that higher concentrations of mogroside be used than when cooking in oil, because the mogroside is soluble in the cooking liquid. Higher concentrations of mogroside may be needed to promote osmosis or diffusion into the food. Temperature and cooking time will also have an effect on uptake of mogroside: In general, more mogroside will be taken up by food when the cooking temperature is higher, and also when the cooking time is longer."}}}
{"substance": "mogroside", "values": [{"measurement": "flavor", "setting": "[1]; 50% glycerine solution + mogroside (without: biting)", "result": "sweet"}, {"measurement": "effect on astringent or biting taste of glycerine", "setting": "[1]; mogroside added to glycerine-water mixtures", "result": "greatly reduces or even eliminates the astringent or biting taste"}, {"measurement": "observed flavor change", "setting": "[2]; artichoke hearts", "result": "reduction in bitterness and grassy flavor"}, {"measurement": "observed flavor change", "setting": "[2]; broccoli", "result": "reduction in sulfur and bitter notes"}, {"measurement": "observed flavor change", "setting": "[2]; carrots", "result": "more intense sweetness"}, {"measurement": "observed flavor change", "setting": "[2]; corn", "result": "sweeter corn flavor"}, {"measurement": "observed flavor change", "setting": "[2]; green beans", "result": "sweeter flavor and fewer beany notes"}, {"measurement": "observed flavor change", "setting": "[2]; lima beans", "result": "reduction in bitterness"}, {"measurement": "observed flavor change", "setting": "[2]; peas", "result": "shorter flavor profile"}, {"measurement": "flavor", "setting": "[3]", "result": "tasteless"}, {"measurement": "solubility in water compared with oil", "setting": "[4]", "result": "much higher than that in oil"}]}
